In patent publication US12122761B2, “2-azaspiro[3.4]octane derivatives as M4 agonists” (NOVARTIS AG, priority 2019, dated 2024):
pEC50: −log10 of the molar value.

Molecular target: T1, Cloned human M1 receptor (CHRM1) stably expressed in HEK293 cells (Homo sapiens, UniProt P11229)
T1 construct: expressed in transfected cells; host or cells: HEK293
T1 sequence (P11229 1-460): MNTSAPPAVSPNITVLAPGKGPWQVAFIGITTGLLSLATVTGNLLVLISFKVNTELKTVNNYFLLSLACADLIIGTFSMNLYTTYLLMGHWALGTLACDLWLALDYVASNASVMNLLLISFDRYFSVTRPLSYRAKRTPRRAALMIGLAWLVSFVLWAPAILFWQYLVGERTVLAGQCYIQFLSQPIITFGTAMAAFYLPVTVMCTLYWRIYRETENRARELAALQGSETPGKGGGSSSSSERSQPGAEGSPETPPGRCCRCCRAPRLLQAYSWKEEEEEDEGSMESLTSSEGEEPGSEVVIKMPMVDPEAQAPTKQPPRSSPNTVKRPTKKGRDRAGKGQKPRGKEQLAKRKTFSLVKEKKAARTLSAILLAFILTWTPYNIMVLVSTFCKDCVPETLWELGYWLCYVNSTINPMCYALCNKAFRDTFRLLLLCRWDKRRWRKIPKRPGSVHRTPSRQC
Assay: CHRM1 Ca++ Flux Assay (agonist mode, FDSS 7000EX)
Assay type: cell-based
Conditions: for M1 FDSS PA: Percent Activity; for pEC50: geometric mean if tested more than once; for Emax: HEK293, Percent Activity, read-out: M1 FDSS PA
In short: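 Compounds tested as agonists at 11 concentrations in triplicate, with calcium traces captured over 3 minutes. Cells were HEK293 with stable human CHRM1 expression, plated overnight at 25K/well and loaded with calcium dye. Responses normalized to carbachol EC100 and fitted by four-parameter nonlinear regression.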

SMILES	M1 FDSS PA [%]	pEC50	Emax [%]
Fc1ccc(OC2CCOCC2)c(C2CCN([C@@H]3CCC4(C3)CN(c3cncnc3)C4)CC2)c1 (single isomer, unassigned) [Example 10G, (R)-6-(4-(5-fluoro-2-((tetrahydro-2H-pyran-4-yl)oxy)phenyl)piperidin-1-yl)-2-(pyrimidin-5-yl)-2-azaspiro[3.4]octane or (S)-6-(4-(5-fluoro-2-((tetrahydro-2H-pyran-4-yl)oxy)phenyl)piperidin-1-yl)-2-(pyrimidin-5-yl)-2-azaspiro[3.4]octane]	64	7.20	
Fc1ccc(OC2CCOCC2)c(C2CCN([C@@H]3CCC4(C3)CN(c3cncnc3)C4)CC2)c1 (single isomer, unassigned) [Example 10H, (R)-6-(4-(5-fluoro-2-((tetrahydro-2H-pyran-4-yl)oxy)phenyl)piperidin-1-yl)-2-(pyrimidin-5-yl)-2-azaspiro[3.4]octane or (S)-6-(4-(5-fluoro-2-((tetrahydro-2H-pyran-4-yl)oxy)phenyl)piperidin-1-yl)-2-(pyrimidin-5-yl)-2-azaspiro[3.4]octane]	36	5.86	
COc1ccccc1C1CCN([C@H]2CCC3(C2)CN(c2ncco2)C3)CC1 (single isomer, unassigned) [Example 10I, S)-2-(6-(4-(2-methoxyphenyl)piperidin-1-yl)-2-azaspiro[3.4]octan-2-yl)oxazole or (R)-2-(6-(4-(2-methoxyphenyl)piperidin-1-yl)-2-azaspiro[3.4]octan-2-yl)oxazole]	0	< 4.60	
COc1ccccc1C1CCN([C@H]2CCC3(C2)CN(c2ncco2)C3)CC1 (single isomer, unassigned) [Example 10J, (S)-2-(6-(4-(2-methoxyphenyl)piperidin-1-yl)-2-azaspiro[3.4]octan-2-yl)oxazole or (R)-2-(6-(4-(2-methoxyphenyl)piperidin-1-yl)-2-azaspiro[3.4]octan-2-yl)oxazole]	66	7.70	
FC(F)(F)Oc1ccccc1C1CCN([C@@H]2CCC3(C2)CN(c2ncco2)C3)CC1 (single isomer, unassigned) [Example 10K, (R)-2-(6-(4-(2-(trifluoromethoxy)phenyl)piperidin-1-yl)-2-azaspiro[3.4]octan-2-yl)oxazole or (S)-2-(6-(4-(2-(trifluoromethoxy)phenyl)piperidin-1-yl)-2-azaspiro[3.4]octan-2-yl)oxazole]	65	7.03	
FC(F)(F)Oc1ccccc1C1CCN([C@@H]2CCC3(C2)CN(c2ncco2)C3)CC1 (single isomer, unassigned) [Example 10L, (R)-2-(6-(4-(2-(trifluoromethoxy)phenyl)piperidin-1-yl)-2-azaspiro[3.4]octan-2-yl)oxazole or (S)-2-(6-(4-(2-(trifluoromethoxy)phenyl)piperidin-1-yl)-2-azaspiro[3.4]octan-2-yl)oxazole]	50	6.13	
FC(F)(F)Oc1ccccc1C1CCN([C@@H]2CCC3(C2)CN(c2nncs2)C3)CC1 (single isomer, unassigned) [Example 10M, (R)-2-(6-(4-(2-(trifluoromethoxy)phenyl)piperidin-1-yl)-2-azaspiro[3.4]octan-2-yl)-1,3,4-thiadiazole or (S)-2-(6-(4-(2-(trifluoromethoxy)phenyl)piperidin-1-yl)-2-azaspiro[3.4]octan-2-yl)-1,3,4-thiadiazole]	77	7.31	
FC(F)(F)Oc1ccccc1C1CCN([C@@H]2CCC3(C2)CN(c2nncs2)C3)CC1 (single isomer, unassigned) [Example 10N, (R)-2-(6-(4-(2-(trifluoromethoxy)phenyl)piperidin-1-yl)-2-azaspiro[3.4]octan-2-yl)-1,3,4-thiadiazole or (S)-2-(6-(4-(2-(trifluoromethoxy)phenyl)piperidin-1-yl)-2-azaspiro[3.4]octan-2-yl)-1,3,4-thiadiazole]	0	< 4.60	
FC(F)Oc1ccccc1C1CCN([C@@H]2CCC3(C2)CN(c2nncs2)C3)CC1 (single isomer, unassigned) [Example 10O, (R)-2-(6-(4-(2-(difluoromethoxy)phenyl)piperidin-1-yl)-2-azaspiro[3.4]octan-2-yl)-1,3,4-thiadiazole or (S)-2-(6-(4-(2-(difluoromethoxy)phenyl)piperidin-1-yl)-2-azaspiro[3.4]octan-2-yl)-1,3,4-thiadiazole]	83	7.36	
COc1ccccc1C1CCN([C@@H]2CCC3(C2)CN(c2ncns2)C3)CC1 (single isomer, unassigned) [Example 10Q, (R)-5-(6-(4-(2-methoxyphenyl)piperidin-1-yl)-2-azaspiro[3.4]octan-2-yl)-1,2,4-thiadiazole or (S)-5-(6-(4-(2-methoxyphenyl)piperidin-1-yl)-2-azaspiro[3.4]octan-2-yl)-1,2,4-thiadiazole]	66	6.77	
COc1ccccc1C1CCN([C@@H]2CCC3(C2)CN(c2ncns2)C3)CC1 (single isomer, unassigned) [Example 10R, (R)-5-(6-(4-(2-methoxyphenyl)piperidin-1-yl)-2-azaspiro[3.4]octan-2-yl)-1,2,4-thiadiazole or (S)-5-(6-(4-(2-methoxyphenyl)piperidin-1-yl)-2-azaspiro[3.4]octan-2-yl)-1,2,4-thiadiazole]	0	< 4.60	
O=C(N1CC2(CC[C@@H](N3CCC(c4cc(F)ccc4OC4CC5(COC5)C4)CC3)C2)C1)C1(F)CC1 (single isomer, unassigned) [Example 11A, (R)-(6-(4-(2-((2-oxaspiro[3.3]heptan-6-yl)oxy)-5-fluorophenyl)piperidin-1-yl)-2-azaspiro[3.4]octan-2-yl)(1-fluorocyclopropyl)methanone or (S)-(6-(4-(2-((2-oxaspiro[3.3]heptan-6-yl)oxy)-5-fluorophenyl)piperidin-1-yl)-2-azaspiro[3.4]octan-2-yl)(1-fluorocyclopropyl)methanone]	9	< 4.60	
O=C(N1CC2(CC[C@@H](N3CCC(c4cc(F)ccc4OC4CC5(COC5)C4)CC3)C2)C1)C1(F)CC1 (single isomer, unassigned) [Example 11B, (R)-(6-(4-(2-((2-oxaspiro[3.3]heptan-6-yl)oxy)-5-fluorophenyl)piperidin-1-yl)-2-azaspiro[3.4]octan-2-yl)(1-fluorocyclopropyl)methanone or (S)-(6-(4-(2-((2-oxaspiro[3.3]heptan-6-yl)oxy)-5-fluorophenyl)piperidin-1-yl)-2-azaspiro[3.4]octan-2-yl)(1-fluorocyclopropyl)methanone]	9	7.52	
O=C(N1CC2(CC[C@@H](N3CCC(c4ccccc4OC4CC5(COC5)C4)CC3)C2)C1)C1(F)CC1 (single isomer, unassigned) [Example 11C, (R)-(6-(4-(2-((2-oxaspiro[3.3]heptan-6-yl)oxy)phenyl)piperidin-1-yl)-2-azaspiro[3.4]octan-2-yl)(1-fluorocyclopropyl)methanone or (S)-(6-(4-(2-((2-oxaspiro[3.3]heptan-6-yl)oxy)phenyl)piperidin-1-yl)-2-azaspiro[3.4]octan-2-yl)(1-fluorocyclopropyl)methanone]	1	< 4.60	
O=C(N1CC2(CC[C@@H](N3CCC(c4ccccc4OC4CC5(COC5)C4)CC3)C2)C1)C1(F)CC1 (single isomer, unassigned) [Example 11D, (R)-(6-(4-(2-((2-oxaspiro[3.3]heptan-6-yl)oxy)phenyl)piperidin-1-yl)-2-azaspiro[3.4]octan-2-yl)(1-fluorocyclopropyl)methanone or (S)-(6-(4-(2-((2-oxaspiro[3.3]heptan-6-yl)oxy)phenyl)piperidin-1-yl)-2-azaspiro[3.4]octan-2-yl)(1-fluorocyclopropyl)methanone]	1	< 4.60	
Fc1ccc(OC2CC3(COC3)C2)c(C2CCN([C@@H]3CCC4(C3)CN(c3nnco3)C4)CC2)c1 [Example 1B, (R)-2-(6-(4-(2-((2-oxaspiro[3.3]heptan-6-yl)oxy)-5-fluorophenyl)piperidin-1-yl)-2-azaspiro[3.4]octan-2-yl)-1,3,4-oxadiazole]		6.49	48
c1ccc(C2CCN([C@@H]3CCC4(C3)CN(c3nnco3)C4)CC2)c(OC[C@H]2COCCO2)c1 [Example 1C, 2-((R)-6-(4-(2-(((R)-1,4-dioxan-2-yl)methoxy)phenyl)piperidin-1-yl)-2-azaspiro[3.4]octan-2-yl)-1,3,4-oxadiazole]		7.25	85
Cc1coc(N2CC3(CC[C@@H](N4CCC(c5ccc(F)cc5OCC(C)(C)O)CC4)C3)C2)n1 [Example 3N, (R)-1-(5-fluoro-2-(1-(2-(4-methyloxazol-2-yl)-2-azaspiro[3.4]octan-6-yl)piperidin-4-yl)phenoxy)-2-methylpropan-2-ol]		< 4.60	0
Cc1coc(N2CC3(CC[C@@H](N4CCC(c5ccccc5OCC(C)(C)O)CC4)C3)C2)n1 [Example 3O, (R)-2-methyl-1-(2-(1-(2-(4-methyloxazol-2-yl)-2-azaspiro[3.4]octan-6-yl)piperidin-4-yl)phenoxy)propan-2-ol]		< 4.60	0
